On to `Nc1ccc(C#Cc2ncn3c(C(F)(F)F)cc(-c4ccc(C(F)(F)F)cc4)nc23)cn1` [Example 284, 5-[4-Trifluoromethyl-2-(4-trifluoromethyl-phenyl)-imidazo[1,5-a]pyrimidin-8-ylethynyl]-pyridin-2-ylamine], for which the melting point was 225 °C. In turn, `Cc1nc(N)ccc1C#Cc1cnn2c(C(F)(F)F)cc(-c3ccc(C(F)(F)F)cc3)nc12` [Example 128, 6-Methyl-5-[7-trifluoromethyl-5-(4-trifluoromethyl-phenyl)-pyrazolo[1,5-a]pyrimidin-3-ylethynyl]-pyridin-2-ylamine] registered a melting point of 251 to 254 °C.

Turning to `NS(=O)(=O)c1ccc(C#Cc2cnn3ccc(-c4ccc(C(F)(F)F)cc4)nc23)s1` [Example 311, 5-[5-(4-Trifluoromethyl-phenyl)-pyrazolo[1,5-a]pyrimidin-3-ylethynyl]-thiophene-2-sulfonic acid amide], the melting point lay in the range of 224 to 226 °C.

With `CC(C)(CO)NS(=O)(=O)c1cccc(C#Cc2cnn3c(C(F)(F)F)cc(-c4ccc(C(F)(F)F)cc4)nc23)c1` [Example 4, N-(2-Hydroxy-1,1-dimethyl-ethyl)-3-[7-trifluoromethyl-5-(4-trifluoromethyl-phenyl)-pyrazolo[1,5-a]pyrimidin-3-ylethynyl]-benzenesulfonamide], the melting point is 201 to 204 °C. The same measure for `CC(C)(CO)NS(=O)(=O)c1cnc(C#Cc2cnc3c(C(F)(F)F)cc(-c4ccc(C(F)(F)F)cc4)cn23)s1` [Example 196, 2-[8-Trifluoromethyl-6-(4-trifluoromethyl-phenyl)-imidazo[1,2-a]pyridin-3-ylethynyl]-thiazole-5-sulfonic acid (2-hydroxy-1,1-dimethyl-ethyl)-amide]: 202 to 203 °C; for `FC(F)(F)c1ccc(-c2cc(C(F)(F)F)n3ncc(C#Cc4ccccn4)c3n2)cc1` [Example 6, 3-Pyridin-2-ylethynyl-7-trifluoromethyl-5-(4-trifluoromethyl-phenyl)-pyrazolo[1,5-a]pyrimidine]: 158 to 159 °C; for `Nc1cnc(C#Cc2cnn3c(C(F)(F)F)cc(-c4ccc(C(F)(F)F)cc4)nc23)cn1` [Example 286, 5-[7-Trifluoromethyl-5-(4-trifluoromethyl-phenyl)-pyrazolo[1,5-a]pyrimidin-3-ylethynyl]-pyrazin-2-ylamine]: 200 °C. For the compound `CN(C)CCNS(=O)(=O)c1ccc(C#Cc2cnn3c(C(F)F)cc(-c4cccc(C(F)(F)F)c4)nc23)s1` [Example 250, 5-[7-Difluoromethyl-5-(3-trifluoromethyl-phenyl)-pyrazolo[1,5-a]pyrimidin-3-ylethynyl]-thiophene-2-sulfonic acid (2-dimethylamino-ethyl)-amide], the melting point was found to be 170 °C. In the case of `NS(=O)(=O)c1cc(C#Cc2cnn3c(C(F)(F)F)cc(-c4ccc(Cl)c(Cl)c4)nc23)c(F)cc1F` [Example 92, 5-[5-(3,4-Dichloro-phenyl)-7-trifluoromethyl-pyrazolo[1,5-a]pyrimidin-3-ylethynyl]-2,4-difluoro-benzenesulfonamide], the melting point lay in the range of 308 to 310 °C. With `Nc1ccc(C#Cc2cnn3c(C(F)(F)F)cc(-c4ccc(Cl)cc4)nc23)nn1` [Example 247, 6-[5-(4-Chloro-phenyl)-7-trifluoromethyl-pyrazolo[1,5-a]pyrimidin-3-ylethynyl]-pyridazin-3-ylamine], the melting point fell in the range of 247 to 248 °C. In turn, `Cc1cc(-c2cc(C(F)(F)F)n3ncc(C#Cc4ccc(S(N)(=O)=O)s4)c3n2)ccc1Cl` [Example 114, 5-[5-(4-Chloro-3-methyl-phenyl)-7-trifluoromethyl-pyrazolo[1,5-a]pyrimidin-3-ylethynyl]-thiophene-2-sulfonic acid amide] showed a melting point of 216 °C. Compound `Nc1ccc(C#Cc2cnn3c(C(F)(F)F)cc(-c4ccc(C(F)(F)F)cc4)cc23)cn1` [Example 235, 5-[7-Trifluoromethyl-5-(4-trifluoromethyl-phenyl)-pyrazolo[1,5-a]pyridin-3-ylethynyl]-pyridin-2-ylamine] returned a melting point of 243 to 245 °C.

Usually melting point stands for the temperature of the solid-liquid transition.

The record behind these values is US8063048B2, “Acetylenyl-pyrazolo-pyrimidine derivatives” (Hoffmann-La Roche Inc., priority 2005, dated 2011).
